Test results reported in paper PMC11477167, “Structure–Function Relationship of a Novel MTX-like Peptide (MTX1) Isolated and Characterized from the Venom of the Scorpion Maurus palmatus” (International Journal of Molecular Sciences, 2024).
Entries after “also recorded” stand apart in the source; their conditions may differ. Bridge positions count the residues as written; N and C are the ends. Peptide text beside a SMILES is read from it.

How the values were obtained:
rat Kv1.2 = molecular target: T1, rat Kv1.2 (Rattus norvegicus, UniProt P63142); assay: Two-electrode voltage clamp, Kv1.2 expressed in Xenopus laevis oocytes; assay type: cell-based
T1 construct: expressed in transfected cells; host or cells: Xenopus laevis oocytes, cRNA injection
T1 sequence (P63142 whole entry): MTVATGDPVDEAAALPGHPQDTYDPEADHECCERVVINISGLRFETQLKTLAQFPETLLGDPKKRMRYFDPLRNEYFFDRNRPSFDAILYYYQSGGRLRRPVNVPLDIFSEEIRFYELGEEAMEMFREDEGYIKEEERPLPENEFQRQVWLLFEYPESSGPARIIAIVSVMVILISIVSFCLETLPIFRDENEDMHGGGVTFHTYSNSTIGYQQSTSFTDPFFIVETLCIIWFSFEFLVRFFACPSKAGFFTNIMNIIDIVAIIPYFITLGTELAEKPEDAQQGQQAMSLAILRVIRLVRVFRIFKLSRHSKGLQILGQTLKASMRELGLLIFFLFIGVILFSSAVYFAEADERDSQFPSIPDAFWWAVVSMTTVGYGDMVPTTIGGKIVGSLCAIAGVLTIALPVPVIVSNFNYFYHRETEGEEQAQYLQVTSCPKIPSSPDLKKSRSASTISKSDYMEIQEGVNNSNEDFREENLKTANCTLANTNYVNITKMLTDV
Text: (§1) 4.11. Oocyte Preparation and Electrophysiological Recordings
(§2) The xenopus was anesthetized in a bath of tricaine solution. It was then placed on its back in a dissecting tank covered with alcohol-cleaned BenchGuard paper. A horizontal slit was made in the animal’s lower abdomen by incising a piece of the underlying muscle with the skin. The ootheca were then gently pulled outwards and a portion was cut out and transferred to a sterile Erlen tube containing MBS medium, leaving the rest in place in the ovary. Finally, the incision was closed using sterile, absorbable sutures.
(§3) Xenopus laevis oocytes at stages V and VI were retrieved and prepared for cRNA injection and electrophysiological recordings. The enzymatic elimination of oocyte follicular cell layers was carried out by employing 2 mg·mL^−1 collagenase IA (Sigma, St. Louis, MO, USA) in the classical Barth’s medium containing (in mm) 88 NaCl, 1 KCl, 0.82 MgSO4, 0.33 Ca(NO3)2, 0.41 CaCl2, 2.4 NaHCO3, and 15N-2-hydroxyethylpiperazine-N′-ethanesulfonic acid (Hepes), with a pH of 7.4 (NaOH). The plasmids were digested using Xba1 (rat Kv1.2) and EcoR1 (rat Kv1.3). The resultant linearized plasmids were transcribed using either a T7 or SP6 mMessage mMachine transcription kit (Ambion, Austin, TX, USA). Subsequently, cRNAs (1 µg·µL^−1) were cryopreserved in H2O at −80 °C. Injection of cells with 50 nL of cRNA (0.2 µg·µL^−1 rat Kv1.2, or Kv1.3 channels) took place 2 days later. To promote the expression of ion channels, the cells were cultured at 16 °C in a specified nutrient oocyte medium for 2–6 days prior to conducting current recordings. Oocyte currents were captured at 20–22 °C using conventional two-microelectrode techniques with a voltage-clamp amplifier (GeneClamp 500; Axon Instruments, Foster City, CA, USA) linked to a 16-bit AD/DA converter (Digidata 1200A, Axon Instruments). […] Voltage pulses were administered every 15 s, maintaining a holding potential of −80 mV. Current data were sampled at 10 kHz, subjected to low-pass filtration at 2 kHz through an eight-pole Bessel filter and archived on a computer for subsequent assessment. The extracellular solution for recording contained (in mM) 88 NaCl, 10 KCl, 2 MgCl2, 0.5 CaCl2, 0.5 niflumic acid, 5 Hepes, and 0.1% bovine serum albumin, with a pH of 7.4 (NaOH). The P/4 protocol was implemented for online subtraction of the leak and capacitive currents. Any residual capacitive artifacts were eliminated for visualization purposes. The peptide solutions of MTX1 were perfused into the recording chamber at a flow rate of 2 mL/min using a ValveBank4 apparatus (Automate Scientific Inc., St Berkeley, CA 94710, USA). Data analysis was conducted using the software patch clamp 6.0.3 (Axon Instruments, Foster City, CA, USA). The outcomes are presented as the mean ± SEM.

[1] = tested on: 125I-CHTX binding site of rat brain synaptosomes (Kv channels); assay: Competition binding with 125I-CHTX on rat brain synaptosomes; conditions: conclusion in words
rat Kv1.3 = molecular target: T2, rat Kv1.3 (Rattus norvegicus, UniProt P15384); assay: Two-electrode voltage clamp, Kv1.3 expressed in Xenopus laevis oocytes; assay type: cell-based
T2 construct: expressed in transfected cells; host or cells: Xenopus laevis oocytes, cRNA injection
T2 sequence (P15384 whole entry): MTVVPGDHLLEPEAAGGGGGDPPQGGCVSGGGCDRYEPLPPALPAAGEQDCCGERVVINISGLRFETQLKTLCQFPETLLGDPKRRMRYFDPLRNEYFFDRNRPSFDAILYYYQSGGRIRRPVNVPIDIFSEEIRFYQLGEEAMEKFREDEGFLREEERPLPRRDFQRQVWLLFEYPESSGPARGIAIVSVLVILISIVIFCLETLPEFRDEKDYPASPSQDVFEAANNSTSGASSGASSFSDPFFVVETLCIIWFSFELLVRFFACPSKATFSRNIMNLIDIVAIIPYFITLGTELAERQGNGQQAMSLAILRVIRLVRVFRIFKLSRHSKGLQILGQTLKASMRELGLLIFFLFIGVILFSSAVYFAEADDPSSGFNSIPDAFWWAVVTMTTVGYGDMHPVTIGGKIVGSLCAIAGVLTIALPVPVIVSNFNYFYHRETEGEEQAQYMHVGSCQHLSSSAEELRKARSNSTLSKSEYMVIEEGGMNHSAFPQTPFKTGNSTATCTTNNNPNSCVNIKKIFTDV
Text: as §1, §2, §3

[2] = tested on: anti-MTX mice polyclonal antibodies; assay: ELISA cross-antigenicity with anti-MTX serum; assay type: binding, mouse
Protocol: Upon retrieval of pre-immune serum via retro-orbital puncture, 30 µg of MTX1 or saline (0.9% NaCl) in complete Freund’s adjuvant was subcutaneously administered to 6-week-old mice on day 1. Subsequent booster injections of incomplete Freund’s adjuvant were administered 15 and 25 days later. On […], the mice were bled and used for ELISA experiments in 96-well microtitration plates (catalog number M5785-1CS Sigma Aldrich, MO, USA). […] The optimal dilution of the immune serum resulting in half-maximum binding of MTX to its specific antiserum was determined to be 1/100,000.
The specificity of anti-MTX against MTX1 and CHTX toxins was assessed using ELISA. One hundred microliters of 5 μg/mL of antigen (MTX1 and CHTX) in 0.1 M sodium bicarbonate buffer at pH 9.6 were adsorbed on 96-well NUNC plates for 90 min at 37 °C. […] Finally, 200 μL of 0.4 mg/mL OPD in citrate buffer (pH 5.2 containing H2O2 (0.03%) was added to each well, followed by a 5 min incubation in the dark at room temperature. The reaction was halted by adding 50 μL of 2 N sulfuric acid. The absorbance at 492 nm was measured using a spectrophotometer (Thermo-Multiskan EX, Shanghai, China). The immune serum titer corresponded to the dilution that yielded 50% of the maximum absorbance.

C57BL/6 mice = assay: Neurotoxic activity in mice by intracerebroventricular injection (LD50); assay type: in vivo, mouse
Protocol: 4.5. The Neurotoxic Activity of MTX1 in Mice
To assess the LD50 of the MTX1, different doses of the peptide were administered to males C57BL/6 mice (20 ± 2 g) by an intracerebroventricular injection under ether anesthesia, which is considered the most sensitive route for scorpion toxins in mammals. Each dose was suspended/diluted in 5 μL of 0.1% (w/v) BSA and tested on six mice. Symptoms of toxicity were observed and recorded over a 24 h period. The median lethal dose (LD50) corresponds to the dose required to kill half of the tested mice.

[3] = 2.5 nM, extracellular application
[4] = kinetics of inhibition, after washing
[5] = oocytes, one value printed for Kv1.2 and Kv1.3

CSCC[C@@H]1NC(=O)[C@@H]2CSSC[C@H](NC(=O)[C@H](CO)NC(=O)[C@@H](N)C(C)C)C(=O)N[C@@H]([C@@H](C)O)C(=O)NCC(=O)N[C@@H](CO)C(=O)N[C@@H](CCCCN)C(=O)N[C@@H](CCC(=O)O)C(=O)N[C@@H](CSSC[C@@H](C(=O)N[C@@H](CCCCN)C(=O)N[C@H]3CSSC[C@@H](C(N)=O)NC(=O)CNC(=O)[C@H](Cc4ccc(O)cc4)NC3=O)NC(=O)[C@H](CCCCN)NC(=O)[C@H](CCCNC(=N)N)NC(=O)[C@H](CC(N)=O)NC1=O)C(=O)N[C@@H](Cc1ccc(O)cc1)C(=O)N[C@@H](C)C(=O)N1CCC[C@H]1C(=O)N[C@H]1CSSC[C@H](NC(=O)CNC(=O)[C@H]([C@@H](C)O)NC(=O)[C@H](CCC(N)=O)NC(=O)[C@H](CCCCN)NC(=O)[C@H](CCCCN)NC1=O)C(=O)N1CCC[C@H]1C(=O)N[C@@H](CC(N)=O)C(=O)N[C@@H](C)C(=O)N[C@@H](CCCCN)C(=O)N2 [MTX1] (H-VSCTGSKECYAPCKKQTGCPNAKCMNRKCKCYGC-NH2; disulfide 3-24, 9-29, 13-19, 31-34; N-terminus and C-terminus assumed)
IC50 on Kv1.2 relative to MTX (rat Kv1.2; 0.26 nM of MTX1 against 0.8 nM of MTX): three times lower than that of MTX
Reduction of outward Kv1.2 currents over voltage (rat Kv1.2; [3]): markedly reduced outward Kv1.2 and Kv1.3 currents at all test voltages examined
inhibition at 0.0025 µM (rat Kv1.2; 2.5 nM, oocytes, read-out: Inhibition of Kv1.2 currents): 90%
Potency on Kv1.2 relative to MTX (rat Kv1.2; comparison in words (Kv1.2 and SKCa channels together)): higher binding affinity; also recorded: more active than MTX on the Kv1.2 channel; also recorded: significantly more effective at inhibiting the Kv1.2 currents and SKCa channels
Reversibility on washing, Kv1.2 (rat Kv1.2; [4]): partial recovery after the washing
Hill coefficient, Kv1.2 concentration-response (rat Kv1.2; [5]): 1.1 ± 0.1
Interaction with the CHTX-binding site [1]: partially interacted with the CHTX-binding site
Reduction of outward Kv1.3 currents over voltage (rat Kv1.3; [3]): markedly reduced outward Kv1.2 and Kv1.3 currents at all test voltages examined
Block of Kv1.3 relative to MTX (rat Kv1.3; comparison in words): comparable effect to MTX; also recorded: in a comparable manner to MTX
Reversibility on washing, Kv1.3 (rat Kv1.3; [4]): partial recovery after the washing
Hill coefficient, Kv1.3 concentration-response (rat Kv1.3; [5]): 1.1 ± 0.1
Recognition by anti-MTX antibodies ([2]; different dilutions of anti-MTX mice polyclonal antibodies): well recognized by anti-MTX antibodies; also recorded: distinctly recognized
IC50 of anti-MTX serum binding relative to MTX ([2]; plates coated with 5 µg/mL antigen): identical
Toxicity in mice (qualitative) (C57BL/6 mice; i.c.v. injection): highly toxic
Toxicity in mice relative to MTX (C57BL/6 mice; i.c.v., LD50 comparison with MTX): approximately eight times more lethal than MTX; also recorded: eight times more effectively than MTX; also recorded: eight times more toxicity than MTX
Dose with maximum fatality rate (C57BL/6 mice; i.c.v., doses 4, 6, 8, 10, 15 and 20 ng, six mice each): 20 ng
Time to death (C57BL/6 mice; i.c.v., doses 4–20 ng): 10 min
LD50 (C57BL/6 mice; i.c.v., male C57BL/6 mice (20 ± 2 g), six mice per dose, 4–20 ng, observed 24 h): 10 ng per mouse
LD50 (C57BL/6 mice; i.c.v., mice): 0.01 μg/mouse
